From ChEMBL document CHEMBL1201862, “PubChem BioAssay data set” (2004) come the findings set out here.

Some test systems named below: CCRF-CEM; DMS-114; HL-60; U-251; RXF 393; Malme-3M; OVCAR-3; 786-0; HOP-92; RPMI-8226; COLO 205; UACC-62; ACHN; SW-620; SNB-75; SF-268; MOLT-4; NCI-H522; KM12.
Holding throughout (test): NCI anticancer screen, dose series, 48 h

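How tested: cells in 96-well plates exposed to compound for 48 hours at five concentrations. GI50 = concentration required for 50% inhibition of growth.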 Activity calls are given as the source filed them. Cut-off read from the data, not from the text of the source: active = GI50 up to about 1.1 µM and inactive = higher.

Consider `CC1CC(c2ccc([N+](=O)[O-])cc2)=Nc2ccccc2S1` (stereo not given), for which the GI50 with CCRF-CEM is 4.32 µM (inactive); in the assay on DMS-114, 17.4 µM (inactive); with HL-60, 7.45 µM (inactive); in the assay with U-251, 15.2 µM (inactive); with RXF 393 it was 17.5 µM (inactive); with Malme-3M it was 35.9 µM (inactive). Further, the GI50 in the assay on OVCAR-3 is 11.5 µM (inactive); with 786-0 it was 15.3 µM (inactive); in the assay on HOP-92, 29 µM (inactive); with RPMI-8226 it was 2.3 µM (inactive); with COLO 205, 24 µM (inactive); with UACC-62 it was 14 µM (inactive). The GI50 with ACHN was 19.7 µM (inactive); in the assay with SW-620, 15.6 µM (inactive); with SNB-75 it was 37.6 µM (inactive); in the assay on SF-268, 17.3 µM (inactive); in the assay on MOLT-4, 18.1 µM (inactive); with NCI-H522 it was 20.3 µM (inactive). Moreover, the GI50 with KM12 is 12.6 µM (inactive).
Turning to `N#Cc1cccc(/C=N/C23CC4CC(CC(C4)C2)C3)c1`, the GI50 was 62.5 µM (inactive) in the assay on CCRF-CEM; > 100 µM (inactive) with DMS-114; 21.3 µM (inactive) in the assay with HL-60; > 100 µM (inactive) in the assay with U-251; > 100 µM (inactive) in the assay on RXF 393; > 100 µM (inactive) in the assay on Malme-3M. The GI50 in the assay with OVCAR-3 is > 100 µM (inactive); in the assay on 786-0 it was > 100 µM (inactive); in the assay with HOP-92 it was > 100 µM (inactive); with RPMI-8226 it was 52.2 µM (inactive); in the assay on COLO 205, > 100 µM (inactive); with UACC-62 it was > 100 µM (inactive). The GI50 in the assay on ACHN was > 100 µM (inactive); in the assay with SW-620, > 100 µM (inactive); with SNB-75 it was > 10 µM (inactive); with SF-268 it was > 100 µM (inactive); in the assay on MOLT-4, 99.1 µM (inactive); with NCI-H522 it was > 100 µM (inactive). The GI50 in the assay with KM12 is > 100 µM (inactive).
Turning to `CCCCCCCCCCCCCCCC(=O)OCC1OC(OC)C2NP(=O)(N(CCCl)CCCl)OC1C2O` (stereo not given), the GI50 with CCRF-CEM was 0.142 µM (active); in the assay on DMS-114, 1.54 µM (inactive); in the assay on HL-60, 0.117 µM (active); in the assay with U-251, 1.32 µM (inactive); in the assay on RXF 393, 1.68 µM (inactive); in the assay on Malme-3M it was 14.1 µM (inactive). The GI50 was 3.16 µM (inactive) in the assay on OVCAR-3; 0.44 µM (active) with 786-0; 0.822 µM (active) with HOP-92; 2.51 µM (inactive) with RPMI-8226; 4.22 µM (inactive) with COLO 205; 1.23 µM (inactive) with UACC-62. In addition, the GI50 with ACHN was 0.953 µM (active); in the assay on SW-620, 2.22 µM (inactive); in the assay with SNB-75, 2.91 µM (inactive); with SF-268 it was 1.67 µM (inactive); with MOLT-4, 0.0288 µM (active); with NCI-H522 it was 0.916 µM (active). The GI50 in the assay with KM12 is 16.3 µM (inactive).
Take `CCCCCCCCCCCC(=O)OCC1OC(n2cc(F)c(=O)[nH]c2=O)C(N)C(O)C1O` (stereo not given): the GI50 in the assay on CCRF-CEM was 31.2 µM (inactive); in the assay on DMS-114 it was > 100 µM (inactive); with HL-60, 38.9 µM (inactive); in the assay with U-251 it was 79.1 µM (inactive); in the assay with RXF 393, > 100 µM (inactive); in the assay with Malme-3M, > 100 µM (inactive). Moreover, the GI50 is > 100 µM (inactive) in the assay on OVCAR-3; > 100 µM (inactive) in the assay with 786-0; > 100 µM (inactive) in the assay with HOP-92; > 100 µM (inactive) with RPMI-8226; 60.3 µM (inactive) in the assay with COLO 205; 42 µM (inactive) in the assay with UACC-62. Moreover, the GI50 with ACHN was > 100 µM (inactive); in the assay with SW-620 it was > 100 µM (inactive); in the assay on SNB-75, > 100 µM (inactive); in the assay on SF-268, > 100 µM (inactive); in the assay with MOLT-4, 36.3 µM (inactive); in the assay on NCI-H522, 75.3 µM (inactive). Moreover, the GI50 with KM12 was 77.4 µM (inactive).
Turning to `COc1ccc2c([nH]c3c(O)c(-c4c(C)cc5c([nH]c6c(CC=C(C)C)c(OC)ccc65)c4O)c(C)cc32)c1CC=C(C)C` [BISMURRAYAFOLINE B], the GI50 in the assay on CCRF-CEM, in the assay with DMS-114, with HL-60, with U-251, in the assay on RXF 393 and with Malme-3M was > 100 µM (inactive) in each case. In addition, the GI50 in the assay with OVCAR-3, in the assay on 786-0, with HOP-92, in the assay with RPMI-8226, in the assay on COLO 205 and in the assay on UACC-62 was > 100 µM (inactive) throughout. Also, the GI50 in the assay with ACHN, in the assay on SW-620, in the assay with SNB-75, in the assay on SF-268, in the assay on MOLT-4 and in the assay with NCI-H522 was > 100 µM (inactive) in each case. Moreover, the GI50 with KM12 is > 100 µM (inactive).
